Data from ChEMBL document CHEMBL1201862, “PubChem BioAssay data set” (2004).
Active and inactive are the calls of the source.

Columns and labels:
[1] = Concentration-dependent survival of SW480 colon cancer line, luminescence detection with CellTiter-Glo, half-maximal inhibitory concentration (AID 1117338); assay type: functional
[2] = RKO cell viability reduction, dose response, CellTiter-Glo luminescence (AID 1117322); assay type: functional
[3] = cytotoxicity toward HCT116 cells – cell-based, CellTiter-Glo luminescence, IC50, dose response (AID 1117332); assay type: functional; settings: HCT-116
[4] = SNU-C1 cell viability reduction, dose response, CellTiter-Glo luminescence (AID 1117323); assay type: functional, cell-based
[5] = cytotoxicity toward Colo320 cells – cell-based, CellTiter-Glo luminescence, IC50, dose response (AID 1117334); assay type: functional; settings: COLO 320
[6] = cytotoxicity toward HT-29 cells – cell-based, CellTiter-Glo luminescence, IC50, dose response (AID 1117330); assay type: functional
[7] = CellTiter-Glo luminescent dose response of DLD-1 viability loss (AID 1117352); assay type: functional
[8] = HCT116 cell viability decrease, GSK3B pretreatment – CellTiter-Glo, IC50, dose response (AID 1117339); assay type: functional; settings: HCT-116
Large T antigen = Large T antigen (Simian virus 40, UniProt P03070); assay type: functional, Betapolyomavirus macacae;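 further: Confirmatory-stage PubChem screen for compounds that inhibit SV40 T antigen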
[9] = inhibitors of intracellular T. cruzi replication, confirmation, NIH3T3 host cells, beta-gal luminescence (AID 2044); assay type: functional, cell-based;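 further: intracellular parasites grown in NIH/3T3 mouse fibroblasts as host cells; luminescent beta-galactosidase reporter signal from transgenic T. cruzi replicating inside host cells; inhibitors lower the luminescence signal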
[10] = cytotoxicity toward NIH3T3 fibroblasts, dose response, counter-screen, cell-based, ATP luminescence, mouse fibroblasts (AID 2010); assay type: functional;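 further: cells exposed to compound for about 90 hours before reading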
[11] = target: Bifunctional protein GlmU (Mycobacterium tuberculosis, UniProt P9WMN3); test: Inhibitors of Mycobacterial Glucosamine-1-phosphate acetyl transferase (GlmU). Secondary screen.; design: species or system Mycobacterium tuberculosis H37Rv
[12] = target: T1, Heat shock factor protein 1 (Mus musculus, UniProt P38532); test: HSF1 potentiators in luciferase reporter cells, confirmation, cell-based, NIH3T3, luminescence, dose retest (AID 435004); assay type: functional;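 further: stress induced by proteasome inhibitor MG132 added 30 min after compound; luciferase reporter driven by HSF1 response element in NIH3T3 cells; actives raise luminescence as potentiators of the MG132 stress response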
T1 sequence (P38532 whole entry): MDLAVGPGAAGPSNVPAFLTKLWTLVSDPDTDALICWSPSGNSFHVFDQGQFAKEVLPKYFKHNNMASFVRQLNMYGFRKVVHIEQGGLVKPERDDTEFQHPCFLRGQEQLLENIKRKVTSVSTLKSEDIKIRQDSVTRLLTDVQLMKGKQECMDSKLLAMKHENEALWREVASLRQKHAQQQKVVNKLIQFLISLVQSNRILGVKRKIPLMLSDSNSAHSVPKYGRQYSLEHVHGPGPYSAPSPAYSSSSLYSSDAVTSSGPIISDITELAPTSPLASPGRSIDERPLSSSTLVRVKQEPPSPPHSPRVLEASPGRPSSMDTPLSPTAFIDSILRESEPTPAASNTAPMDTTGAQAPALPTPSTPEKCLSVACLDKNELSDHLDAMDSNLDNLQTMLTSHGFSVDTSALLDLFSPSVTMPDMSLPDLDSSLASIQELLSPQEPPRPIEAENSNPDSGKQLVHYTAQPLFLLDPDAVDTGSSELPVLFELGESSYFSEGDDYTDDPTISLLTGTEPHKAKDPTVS

CHO = test: cytotoxicity in TLR9-MyD88 CHO cells, dose response, cytotoxicity control for TLR9-MyD88 binding inhibitor project, cell-based, luminescence (AID 588339); assay type: functional, hamster; settings: Cricetulus griseus;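 further: CHO cells stably coexpressing TLR9 and MyD88 fusions from primary screen; compound exposure lasted 48 hours before viability readout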
Beta Lactamase = Beta Lactamase (Pseudomonas aeruginosa, UniProt Q932Y6); test: beta-lactamase reporter inhibitor potency, dose response, artefact control for TLR9-MyD88 binding inhibitor project, BLA reporter cells, FRET fluorescence (AID 588341); assay type: cell-based;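 further: cell based assay in CHO-K1 cells stably expressing beta-lactamase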
[13] = Shn3 3'UTR reporter inhibitors, dose response, cell-based, Clone20 osteoblasts, firefly luciferase, cherry-picked (AID 624132); assay type: functional;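 further: firefly luciferase luminescence from reporter carrying the Shn3 3'UTR in osteoblasts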
[14] = HepG2 cell cytotoxicity, dose response, cytotoxicity control for Shn3 inhibitor project, CellTiter-Glo, cherry-picked (AID 624134); assay type: functional, cell-based
[15] = control 3'UTR Renilla luciferase suppression, dose response, counter-screen for Shn3 inhibitor project, cell-based, Clone20-Shn3RL, cherry-picked (AID 624133); assay type: functional
[16] = reduction of endogenous Shn3 mRNA, dose response, qPCR, Clone20 cells, cherry-pick (AID 743415); assay type: functional, cell-based
[17] = reduction of Shn3 3'UTR firefly luciferase signal, dose response, Schnurri-3 inhibitor project, cell-based, Clone20 osteoblasts, cherry-pick, set 2 (AID 720490); assay type: functional;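 further: actives lower the luminescence signal as inhibitors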
[18] = inhibitors of control Renilla luciferase reporter, dose response, counter-screen for Shn3 3'UTR targeting project, Clone20-Shn3RL cells, dual-Glo, cherry-pick, set 2 (AID 720724); assay type: functional, cell-based; settings: Dual-Go Shn3RL
[19] = ADAM10 inhibitors, peptide cleavage, dose response, biochemical, QFRET (AID 743254);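 further: ADAM10 enzyme with the DM2 quenched FRET peptide as substrate; EDANS fluorescence gain as the protease cuts the substrate; inhibitor potency against ADAM10 proteolytic activity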
[20] = target: Disintegrin and metalloproteinase domain-containing protein 17 (Homo sapiens, UniProt P78536); test: ADAM17 protease inhibitors, dose response, counter-screen for ADAM10 exosite inhibitor project, biochemical, quenched FRET substrate (AID 743253)
Trypsin = Trypsin (Sus scrofa, UniProt P00761); test: porcine trypsin inhibitors, dose response, selectivity assay for Rce1 protease inhibitor project, biochemical, quenched peptide fluorescence, cherry-pick (AID 488789)
CAAX prenyl protease 2 [21] = target: T2, CAAX prenyl protease 2 (Saccharomyces cerevisiae S288c, UniProt Q03530); assay type: biochemical
T2 sequence (Q03530 whole entry): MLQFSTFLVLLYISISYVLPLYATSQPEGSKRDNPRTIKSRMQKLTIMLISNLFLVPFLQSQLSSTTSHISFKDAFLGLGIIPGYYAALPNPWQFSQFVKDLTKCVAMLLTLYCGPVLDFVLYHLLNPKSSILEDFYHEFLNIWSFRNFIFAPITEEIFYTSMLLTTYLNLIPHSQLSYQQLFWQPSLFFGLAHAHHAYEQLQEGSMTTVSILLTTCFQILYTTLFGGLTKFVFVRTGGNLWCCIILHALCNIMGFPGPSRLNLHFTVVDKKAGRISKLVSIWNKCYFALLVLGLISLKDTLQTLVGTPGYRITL

CAAX prenyl protease 2 [22] = target: T3, CAAX prenyl protease 2 (Homo sapiens, UniProt Q9Y256); test: human Rce1 protease inhibitors, dose response, biochemical, yeast membranes, quenched-peptide fluorescence, cherry-pick (AID 588849)
T3 sequence (Q9Y256 whole entry): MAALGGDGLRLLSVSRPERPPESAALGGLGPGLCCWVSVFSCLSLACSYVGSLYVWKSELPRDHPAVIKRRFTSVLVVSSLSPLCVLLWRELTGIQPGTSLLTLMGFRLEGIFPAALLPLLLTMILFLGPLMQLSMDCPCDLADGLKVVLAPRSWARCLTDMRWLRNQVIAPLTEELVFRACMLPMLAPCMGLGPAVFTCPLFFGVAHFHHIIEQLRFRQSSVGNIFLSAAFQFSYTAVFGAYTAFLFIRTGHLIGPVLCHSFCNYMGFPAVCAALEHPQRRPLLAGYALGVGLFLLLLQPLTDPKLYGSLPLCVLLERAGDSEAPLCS

[23] = HepG2 cell cytotoxicity, dose response, cytotoxicity control, ATP luminescence, cherry-pick, set 6 (AID 1053125); assay type: functional, cell-based
cells [24] = test: cells
cells [25] = settings: HEK293
[26] = Artemis endonuclease inhibitor potency, dose response, biochemical, fluorescence intensity (AID 720701); assay type: functional;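 further: Artemis endonuclease enzyme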
[27] = target: T4, Endoribonuclease toxin MazF (Escherichia coli K-12, UniProt P0AE70); test: MazF toxin RNase activators, dose response, biochemical, fluorescence, single-stranded RNA substrate, uHTS hits (AID 588481); assay type: functional
T4 sequence (P0AE70 whole entry): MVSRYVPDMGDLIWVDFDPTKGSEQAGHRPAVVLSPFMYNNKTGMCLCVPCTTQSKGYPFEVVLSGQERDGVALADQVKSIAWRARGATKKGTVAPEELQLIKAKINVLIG

[28] = target: T4, Endoribonuclease toxin MazF; test: fluorescent RNA oligo signal without MazF, dose response, counter-screen for MazEF activator project, biochemical, fluorescence, single-stranded RNase substrate (AID 588502); assay type: functional
Fibrinogen beta chain [29] = target: T5, Fibrinogen beta chain (Homo sapiens, UniProt P02675); test: Fluorescence polarization-based biochemical high throughput dose response assay to identify inhibitors that disrupt the binding of a cyclic peptide (Tn6) to the fibrin proteolytic product D-Dimer and fragment E complex [DD(E )].
Fibrinogen beta chain [30] = target: T5, Fibrinogen beta chain; test: Fluorescence polarization-based biochemical high throughput dose response assay to identify inhibitors that disrupt the binding of a cyclic peptide (Tn7) to the fibrin proteolytic product D-Dimer and fragment E complex [DD(E )].
[31] = target: RNA-editing ligase 1, mitochondrial (Trypanosoma brucei brucei, UniProt P86926); test: TbREL1 ligase inhibitors, dose response, biochemical, fluorescence, Trypanosoma brucei (AID 1117295); assay type: functional
[32] = target: E3 ubiquitin-protein ligase UHRF1 (Homo sapiens, UniProt Q96T88); test: Counterscreen for inhibitors of 5-meCpG-binding domain protein 2 (MBD2): TRFRET-based biochemical high throughput dose response assay to identify inhibitors of binding of ubiquitin-like with PHD and ring finger domains 1 (UHRF1) to methylated oligonucleotide.
Chain of E3 ubiquitin-protein ligase UHRF1 (Q96T88 whole entry, the tested form may be a part): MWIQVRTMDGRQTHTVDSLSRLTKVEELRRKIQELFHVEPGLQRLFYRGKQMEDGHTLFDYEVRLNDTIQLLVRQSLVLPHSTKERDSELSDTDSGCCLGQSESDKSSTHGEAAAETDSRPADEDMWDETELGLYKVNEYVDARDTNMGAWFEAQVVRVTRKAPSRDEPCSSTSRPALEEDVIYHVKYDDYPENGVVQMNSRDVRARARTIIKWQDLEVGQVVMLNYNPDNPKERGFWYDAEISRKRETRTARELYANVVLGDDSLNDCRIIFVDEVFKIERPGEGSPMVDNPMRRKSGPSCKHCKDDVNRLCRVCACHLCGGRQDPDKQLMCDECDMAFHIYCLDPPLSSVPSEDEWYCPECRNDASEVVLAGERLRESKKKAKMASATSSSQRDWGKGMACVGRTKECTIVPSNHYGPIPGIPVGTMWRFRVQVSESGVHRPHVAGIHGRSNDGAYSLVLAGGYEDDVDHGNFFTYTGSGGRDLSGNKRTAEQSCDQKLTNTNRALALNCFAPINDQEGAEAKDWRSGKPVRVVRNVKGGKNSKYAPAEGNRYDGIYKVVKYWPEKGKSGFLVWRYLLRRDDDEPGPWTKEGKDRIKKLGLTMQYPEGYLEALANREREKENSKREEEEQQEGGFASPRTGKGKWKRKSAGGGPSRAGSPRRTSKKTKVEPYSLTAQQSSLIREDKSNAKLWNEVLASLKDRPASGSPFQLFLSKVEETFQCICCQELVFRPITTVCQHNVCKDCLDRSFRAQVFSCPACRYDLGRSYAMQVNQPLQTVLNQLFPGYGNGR

T5 sequence (P02675 whole entry, the tested form may be a part): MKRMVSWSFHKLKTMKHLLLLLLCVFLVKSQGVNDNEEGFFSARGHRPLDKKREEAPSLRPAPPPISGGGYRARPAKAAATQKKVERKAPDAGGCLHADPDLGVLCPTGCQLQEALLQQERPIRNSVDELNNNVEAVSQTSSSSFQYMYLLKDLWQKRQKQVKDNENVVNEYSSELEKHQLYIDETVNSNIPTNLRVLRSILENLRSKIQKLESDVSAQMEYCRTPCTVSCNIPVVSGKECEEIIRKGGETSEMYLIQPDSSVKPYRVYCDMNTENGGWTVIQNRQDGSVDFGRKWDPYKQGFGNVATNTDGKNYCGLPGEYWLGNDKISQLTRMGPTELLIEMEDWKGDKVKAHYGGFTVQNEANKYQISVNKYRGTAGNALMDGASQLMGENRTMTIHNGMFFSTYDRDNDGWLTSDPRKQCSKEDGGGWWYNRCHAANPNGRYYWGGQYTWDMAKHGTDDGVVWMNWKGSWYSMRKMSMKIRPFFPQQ
Chain of Large T antigen (P03070 whole entry): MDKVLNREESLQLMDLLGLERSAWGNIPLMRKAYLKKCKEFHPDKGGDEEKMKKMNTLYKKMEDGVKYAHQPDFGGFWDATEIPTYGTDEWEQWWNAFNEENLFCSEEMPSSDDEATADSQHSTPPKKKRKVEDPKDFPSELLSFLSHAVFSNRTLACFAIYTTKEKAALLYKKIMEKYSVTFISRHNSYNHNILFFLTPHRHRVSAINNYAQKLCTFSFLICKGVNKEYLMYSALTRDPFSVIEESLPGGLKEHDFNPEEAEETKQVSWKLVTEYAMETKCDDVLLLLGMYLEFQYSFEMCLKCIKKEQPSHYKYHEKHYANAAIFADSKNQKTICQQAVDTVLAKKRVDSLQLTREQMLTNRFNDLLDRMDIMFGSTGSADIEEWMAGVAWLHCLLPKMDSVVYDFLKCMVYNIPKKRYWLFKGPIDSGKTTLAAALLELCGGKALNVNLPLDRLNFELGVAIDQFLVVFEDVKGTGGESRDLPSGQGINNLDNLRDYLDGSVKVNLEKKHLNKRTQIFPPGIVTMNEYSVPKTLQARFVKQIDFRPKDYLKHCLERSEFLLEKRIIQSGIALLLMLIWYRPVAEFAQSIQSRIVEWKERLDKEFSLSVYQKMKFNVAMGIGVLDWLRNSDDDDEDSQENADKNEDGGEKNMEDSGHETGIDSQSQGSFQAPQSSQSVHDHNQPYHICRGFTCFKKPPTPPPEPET
Chain of Bifunctional protein GlmU (P9WMN3 whole entry): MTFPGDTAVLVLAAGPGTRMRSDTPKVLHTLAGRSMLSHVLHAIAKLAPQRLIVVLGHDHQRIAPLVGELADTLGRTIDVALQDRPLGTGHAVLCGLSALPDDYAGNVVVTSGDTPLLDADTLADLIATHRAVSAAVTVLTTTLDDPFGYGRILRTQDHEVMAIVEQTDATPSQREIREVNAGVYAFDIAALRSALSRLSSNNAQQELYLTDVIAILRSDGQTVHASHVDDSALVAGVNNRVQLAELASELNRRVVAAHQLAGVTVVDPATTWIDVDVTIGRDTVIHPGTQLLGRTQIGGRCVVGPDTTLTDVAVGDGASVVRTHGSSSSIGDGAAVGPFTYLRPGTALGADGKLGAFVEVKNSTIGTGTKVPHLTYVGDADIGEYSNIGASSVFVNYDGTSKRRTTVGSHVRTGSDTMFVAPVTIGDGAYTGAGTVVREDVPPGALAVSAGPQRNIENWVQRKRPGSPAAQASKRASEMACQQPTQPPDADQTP
Chain of Trypsin (P00761 whole entry): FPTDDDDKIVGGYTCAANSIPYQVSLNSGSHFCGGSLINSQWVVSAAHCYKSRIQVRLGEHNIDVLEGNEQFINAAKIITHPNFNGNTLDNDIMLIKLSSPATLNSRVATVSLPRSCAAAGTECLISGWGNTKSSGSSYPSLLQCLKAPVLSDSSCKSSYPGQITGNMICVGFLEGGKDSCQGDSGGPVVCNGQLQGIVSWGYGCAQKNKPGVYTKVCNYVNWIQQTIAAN
Chain of RNA-editing ligase 1, mitochondrial (P86926 whole entry, the tested form may be a part): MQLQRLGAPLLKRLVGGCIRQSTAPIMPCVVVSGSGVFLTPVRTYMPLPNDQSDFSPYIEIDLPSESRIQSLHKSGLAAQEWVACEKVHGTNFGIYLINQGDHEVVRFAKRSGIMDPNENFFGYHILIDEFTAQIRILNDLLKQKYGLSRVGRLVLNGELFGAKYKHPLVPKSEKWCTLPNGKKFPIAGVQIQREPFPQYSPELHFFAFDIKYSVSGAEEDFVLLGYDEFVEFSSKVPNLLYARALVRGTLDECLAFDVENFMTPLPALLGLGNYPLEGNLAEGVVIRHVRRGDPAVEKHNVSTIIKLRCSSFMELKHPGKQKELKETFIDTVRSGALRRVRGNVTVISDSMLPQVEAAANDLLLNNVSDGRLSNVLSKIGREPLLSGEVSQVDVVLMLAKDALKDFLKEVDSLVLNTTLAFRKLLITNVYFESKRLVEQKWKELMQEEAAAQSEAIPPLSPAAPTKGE
Chain of Beta Lactamase (Q932Y6 whole entry): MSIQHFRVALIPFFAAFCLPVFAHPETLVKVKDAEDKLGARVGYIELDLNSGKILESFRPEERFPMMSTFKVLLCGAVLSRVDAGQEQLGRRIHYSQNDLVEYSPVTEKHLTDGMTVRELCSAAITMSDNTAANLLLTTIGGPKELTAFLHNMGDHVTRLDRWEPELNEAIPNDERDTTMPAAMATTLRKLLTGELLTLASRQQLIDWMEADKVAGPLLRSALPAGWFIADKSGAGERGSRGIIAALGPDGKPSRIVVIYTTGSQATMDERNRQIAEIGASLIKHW
Chain of Disintegrin and metalloproteinase domain-containing protein 17 (P78536 whole entry, the tested form may be a part): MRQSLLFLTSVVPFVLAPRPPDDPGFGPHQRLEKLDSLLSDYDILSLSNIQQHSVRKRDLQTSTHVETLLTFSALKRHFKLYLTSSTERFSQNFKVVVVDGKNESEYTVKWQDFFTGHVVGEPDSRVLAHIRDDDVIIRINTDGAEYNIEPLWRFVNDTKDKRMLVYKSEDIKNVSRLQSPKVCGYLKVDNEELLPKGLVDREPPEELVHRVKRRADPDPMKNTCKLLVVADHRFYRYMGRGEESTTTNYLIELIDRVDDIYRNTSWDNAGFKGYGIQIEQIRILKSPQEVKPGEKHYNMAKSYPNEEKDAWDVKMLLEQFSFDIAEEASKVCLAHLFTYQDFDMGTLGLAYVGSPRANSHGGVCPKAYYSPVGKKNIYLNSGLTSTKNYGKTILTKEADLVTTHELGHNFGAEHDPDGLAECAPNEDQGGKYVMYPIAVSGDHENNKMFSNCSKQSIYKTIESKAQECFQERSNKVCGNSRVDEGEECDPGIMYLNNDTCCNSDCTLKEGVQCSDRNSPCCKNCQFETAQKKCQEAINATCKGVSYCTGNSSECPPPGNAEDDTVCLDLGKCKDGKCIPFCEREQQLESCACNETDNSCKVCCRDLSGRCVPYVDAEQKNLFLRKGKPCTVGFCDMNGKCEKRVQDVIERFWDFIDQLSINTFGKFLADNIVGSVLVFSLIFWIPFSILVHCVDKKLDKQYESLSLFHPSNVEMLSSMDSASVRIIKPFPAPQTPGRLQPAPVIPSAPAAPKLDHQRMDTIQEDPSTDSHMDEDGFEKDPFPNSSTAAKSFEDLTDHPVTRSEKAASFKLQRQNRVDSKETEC

NC(=O)n1c(O)c(C(=O)c2cccs2)c2cc(Cl)ccc21
IC50 [1]: 1.02 µM (active) | IC50 [2]: 4.7 µM (active) | IC50 [3]: 2.31 µM (active) | IC50 [4]: 0.537 µM (active) | IC50 [5]: 1.64 µM (active) | IC50 [6]: 5.6 µM (inactive) | IC50 [7]: 6.95 µM (inactive) | IC50 [8]: 3.79 µM (active)

O=C(c1nnsc1[S+]([O-])c1ccc(Cl)cc1)N1CCOCC1 (stereo not drawn)
IC50 (Large T antigen): 31.6 µM (active) | EC50 [9]: 1.85 µM (active) | EC50 [10]: 2.13 µM (active) | IC50 [11]: 181 µM (active) | EC50 [12]: 9.23 µM (active) | IC50 (CHO): 2.21 µM (active) | IC50 (Beta Lactamase): 30.8 µM (inactive) | AC50 [13]: 0.93 µM (active) | AC50 [14]: 27.3 µM (active) | AC50 [15]: 7.35 µM (active) | AC50 [16]: 13.4 µM (active) | AC50 [17]: 2.43 µM (active) | AC50 [18]: 3.79 µM (active)

O=S(=O)(c1ccc(NC(=S)NCCC(c2ccccc2)c2ccccc2)cc1)N1CCOCC1
EC50 [9]: 1.86 µM (active) | EC50 [10]: > 30 µM (not active) | IC50 [19]: 13.2 µM (inactive) | IC50 [20]: > 69.5 µM (inactive)

COC(=O)C1=CN(CC2CCCO2)C=C(C(=O)OC)C1c1cccc(O)c1 (stereo not drawn)
AC50 (Trypsin): 9.88 µM (active) | AC50 (CAAX prenyl protease 2 [21]): 10.6 µM (active) | AC50 (CAAX prenyl protease 2 [22]): 2.08 µM (active) | AC50 [23]: > 52 µM (inactive) | AC50 (cells [24]): 11.1 µM (active) | AC50 (cells [25]): > 52 µM (inactive)

N#Cc1nc(-c2ccc(OCc3ccc(Cl)cc3)cc2)oc1NCCCn1ccnc1
IC50 [26]: 4.52 µM (active)

Cc1ccc2c(c1)[C@H]1[C@H](CO2)[C@H](c2ccccc2)[C@]2(C)C(=O)N(Cc3ccc(F)cc3)CC(=O)N12
EC50 [27]: 3.83 µM (active) | EC50 [28]: 63.9 µM (inactive) | IC50 (Fibrinogen beta chain [29]): > 83.3 µM (inactive) | IC50 (Fibrinogen beta chain [30]): > 83.3 µM (inactive)

C[C@@H](NCCCn1cnc2c(OCc3ccccc3)ncnc21)c1cccc2ccccc12
IC50 [31]: > 96.6 µM (inactive)

CN(C)C(=O)c1cccc(-c2cnc3c(NC=O)cc(-c4ccccc4N(C)C)cn23)c1
IC50 [32]: > 43.8 µM (inactive)
